Test results: publication PMC9103184, “Kunitz-Type Peptides from Sea Anemones Protect Neuronal Cells against Parkinson’s Disease Inductors via Inhibition of ROS Production and ATP-Induced P2X7 Receptor Activation” (International Journal of Molecular Sciences, 2022)
Bridge positions count the residues as written; N and C are the ends. Ends that are not written are not given here.

What was measured:
Recombinant human P2X7R = biological target: T1, Recombinant human P2X7R (Homo sapiens, UniProt Q99572); test: SPR binding to immobilized P2X7R extracellular domain; settings: Biacore 3000, CM5 chip, P2X7R a.a. 47–334, HBS-N pH 7.4, 25 °C, peptide 5–100 μM, two-state (conformational change) binding model
T1 construct: complete extracellular domain, 36.8 kDa; purchased Abbexa LTD, Cambridge, UK
T1 sequence (Q99572 47-334): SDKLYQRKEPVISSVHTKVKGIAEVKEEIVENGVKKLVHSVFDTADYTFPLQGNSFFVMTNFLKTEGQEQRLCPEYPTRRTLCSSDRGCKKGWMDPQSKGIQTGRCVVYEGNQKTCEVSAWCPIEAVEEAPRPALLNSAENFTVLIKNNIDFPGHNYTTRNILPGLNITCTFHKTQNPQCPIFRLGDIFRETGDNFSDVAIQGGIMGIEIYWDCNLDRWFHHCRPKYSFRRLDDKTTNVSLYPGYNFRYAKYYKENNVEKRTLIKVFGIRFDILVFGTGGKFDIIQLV
Experimental: SPR analyses were performed based on using a Biacore 3000 optical biosensor (GE Healthcare, USA) running under the program “Biacore 3000 Control Software v.1.0”. Recombinant human P2X7R (sequence positions of 47–334 a.a.; complete extracellular domain, 36.8 kDa) (Abbexa LTD, Cambridge, UK) was covalently immobilized on the carboxymethylated surface of the Biacore CM5 sensor chip (Cytiva, Chicago, IL, USA), then activated by the 1:1 mixture of 0.2 M 1-ethyl-3-(3-dimethylaminopropyl)carbodiimide hydrochloride (EDC) and 0.05 M N-hydroxysuccinimide (NHS) via the injection of receptor solution (15 μg/mL) in 10 mM sodium acetate (pH 5.0) for 10 min at a flow rate of 5 μL/min. The reference channel without immobilized P2X7R was used to correct the effects of the non-specific binding of peptides to the chip surface. The quantity of the immobilized hP2X7R equaled 12300 RU (resonance units, 1 RU corresponds to 1 pg receptor bound per mm^2 of chip surface). HBS-N (10 mM HEPES, 150 mM NaCl, pH 7.4) (Cytiva, USA) was used as a running buffer for SPR assays. Peptide solutions in the HBS-N buffer over a concentration range of 5–100 μM were passed through biosensor channels (working and reference) at a flow rate of 10 µL/min for 3 min at 25 °C. Dissociation of the formed peptide–P2X7R complexes was registered at the same flow rate for no less than 6 min from the moment of sample injection. […]

[1] = Thermal stability by CD spectroscopy; format: physicochemical; settings: CD spectra and residual trypsin-inhibitory activity
Experimental: Figure 5 Evaluation of the thermal stability of peptides in deionized water via CD spectroscopy. Recordings of the CD spectra of HCIQ2c1 (a), HMIQ3c1 (b), HCIQ4c7 (c), and HCIQ1c9 (d) were conducted in the far UV region (190–240 nm) after the solutions were incubated over a temperature range from 25 °C to 100 °C for 20–25 min.
Circular dichroism (CD) spectra were recorded on a Chirascan-Plus CD spectropolarimeter (Applied Photophysics, Leatherhead, UK) in quartz cuvettes with an optical path length of 0.1 cm for the peptide spectrum region. The peptides were dissolved in deionized water ([…]) and incubated at temperatures ranging from 25 °C to 100 °C for 20–25 min before recording the CD spectra. The secondary structure elements were calculated using the Provencher–Glockner method using advanced Provencher calculation programs from the CDPro software package (Leatherhead, UK).

Neuro-2a cells = test: ATP-induced Neuro-2a cell death (MTT); format: cell-based, murine
Experimental: Figure 11 The effects of the peptides on ATP-induced Neuro-2a cell viability and activation of P2X7R. (a) Impact of the peptides on Neuro-2a cell viability in the presence of 4 mM ATP. The peptides were tested at concentrations of 0.01, 0.1, and 1.0 μM. Cells were incubated with peptides for 1 h at 37 °C, then for 48 h with ATP. […] The peptide effects were evaluated against the effects of ATP. The data are shown as means ± SE; *—p < 0.05 compared to the effect of ATP alone. […]
Then, 20 μL of substance solution was loaded into the cells and incubated for 24 h followed by replacement of the medium with tested substances and 100 μL of fresh medium. […] The absorbance of the converted dye formazan was measured using a Multiskan FC microplate photometer (Thermo Scientific, Waltham, MA, USA) at a wavelength of 570 nm [83, 84]. […] Cytotoxic activity was expressed as the percentage of cell viability.
At the end of the preincubation period, the cells were treated with peptides at concentrations of 0.01, 0.1, 1, and 10 μM for 1 h, after which 600 μM paraquat, 10 μM rotenone, 80 μM of 6-OHDA, 1 mM MPP^+, or 4 mM ATP (Sigma-Aldrich, St. Louis, MO, USA) was added. […] Cell viability was measured after 24 h (with paraquat, rotenone and 6-OHDA) or 48 h (with ATP and MPP^+) using the MTT assay [85, 86, 87].

P2X7R [2] = format: cell-based, murine
Experimental: Neuro-2a cells were pre-incubated with studied peptides for 1 h at 37 °C with 5% CO2. Then, cells were washed twice with culture medium and loaded with 5 μM Fluo-8 dye (Sigma-Aldrich, St. Louis, MO, USA) and 1 μM Pluronic F-127 (Sigma-Aldrich, St. Louis, MO, USA) and incubated for 40 min at room temperature in HBSS saline at pH 7.4. Then, the cells were washed two times with the same solution but without the fluorescent dye and were incubated for 20–30 min at room temperature in the dark. In some experiments, Ca^2+-free medium was used. Here, 140 mM NaCl, 5 mM KCl, 0.8 mM MgCl2, 10 mM glucose, 10 mM HEPES, 5 mM EGTA, pH 7.4. ATP (1 mM final concentration) were added using a robotic microinjector (20 μL/well), then 10 s later the baseline recording and additional readings were taken up to 50 s at 1 s intervals. The standard P2X7R inhibitor A438079 (Sigma-Aldrich, St. Louis, MO, USA) was used as the inhibitory control. Ionomycin (Sigma-Aldrich, St. Louis, MO, USA) was used to generate a generic calcium signal in cells. Fluo-8 was excited at 488 nm, and the emission at 520 nm was measured with a PHERAstar plate reader (BMG LABTECH, Ortenberg, Germany).

P2X7R [3] = test: ATP-induced YO-PRO-1 uptake in Neuro-2a cells; format: cell-based, murine
Experimental: Figure 11 The effects of the peptides on ATP-induced Neuro-2a cell viability and activation of P2X7R. (a) Impact of the peptides on Neuro-2a cell viability in the presence of 4 mM ATP. The peptides were tested at concentrations of 0.01, 0.1, and 1.0 μM. Cells were incubated with peptides for 1 h at 37 °C, then for 48 h with ATP. (b) Effects of the peptides (0.01, 0.1, and 1.0 μM) on YO-PRO-1 uptake in Neuro-2a cells. ATP was used as a P2X7R agonist. A438079 (10 μM) was used as a standard inhibitor of P2X7R. The peptide effects were evaluated against the effects of ATP. The data are shown as means ± SE; *—p < 0.05 compared to the effect of ATP alone.
For the uptake measurements of the large cationic dye YO-PRO-1, the peptides at final concentrations of 0.01, 0.1, and 1.0 μM were added to the culture medium with Neuro-2a cells and further incubated for 1 h at 37 °C with 5% CO2. Then, the cells were washed once with Hanks’ balanced salt solution (HBSS) (140 mM NaCl, 5 mM KCl, 0.8 mM MgCl2, 2 mM CaCl2, 10 mM glucose, 10 mM HEPES, pH 7.4) and filled with 180 μL of the same buffer. YO-PRO-1 (Sigma-Aldrich, St. Louis, MO, USA) was loaded into the wells to a final concentration of 5 μM, the cells were incubated for 15 min at 37 °C, then ATP was added to a final concentration of 4 mM and the plates were incubated for an additional 10 min. Then, the cells were washed three times with the buffer solution and the fluorescence intensity levels were measured with a PHERAstar FS plate reader (BMG, Germany) at λex = 480 nm and λem = 520 nm. A438079 (10 μM), a standard inhibitor of P2X7R, was used as positive control. The effectiveness of the peptides was evaluated relative to the control with ATP.

Kv channels = settings: cited from earlier work
6-OHDA-treated cells = settings: cited from earlier work
trypsin [4] = biological target: T2, trypsin (Bos taurus, UniProt P00760); test: Residual trypsin-inhibitory activity after heating; format: biochemical; settings: after heating to 100 °C; 7 μM peptide, 1.2 mM BAPNA, 37 °C, three parallel experiments
T2 sequence (P00760 24-246): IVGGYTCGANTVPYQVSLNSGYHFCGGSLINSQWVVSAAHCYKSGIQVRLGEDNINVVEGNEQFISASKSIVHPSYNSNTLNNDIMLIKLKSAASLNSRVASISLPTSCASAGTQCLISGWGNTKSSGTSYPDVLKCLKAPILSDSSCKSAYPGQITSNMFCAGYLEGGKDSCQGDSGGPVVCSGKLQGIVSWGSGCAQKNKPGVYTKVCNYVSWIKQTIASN
Experimental: Figure 6 The effects of temperature on the trypsin-inhibitory activity levels of peptides. Peptides were incubated at the temperatures for 30 min and their residual activities were measured.
The temperature influence on the activity levels of peptides was assessed by measuring their residual inhibitory activity levels. After preincubation at temperatures ranging from 25 to 100 °C for 25 min, the peptide solutions were added to trypsin solution and the reaction mixtures were incubated for 10 min at 37 °C, then 1.2 mM BAPNA was added, followed by incubation at 37 °C for 30 min. The final concentration of the peptides was 7 μM. Substrate hydrolysis was measured at 410 nm. The residual activity was calculated based on the results of three parallel experiments according to the following equation [60]:% = (1 − residual enzyme activity/enzyme activity without inhibitor) × 100

TRPV1 channels = test: Electrophysiology on TRPV1 channels expressed in Xenopus laevis oocytes; format: cell-based
Experimental: Oocytes were injected with 50 nL of cRNA at a concentration of 1 ng/nL using a micro-injector (Drummond Scientific, Broomall, PA, USA).

[5] = calculated using the CDSSR algorithm [54], cited from earlier work
Description: Table 1 The peptide secondary structural elements. | column: α-Helix / I; α-Helix / II; α-Helix / III; β-Structure / I; β-Structure / II; β-Structure / III; β-Turn; Unordered Structure

trypsin [6] = biological target: trypsin
trypsin [7] = test: enzyme inhibition kinetics (Dixon's method); trypsin 208 nM, substrate BAPNA 0.6 and 1.2 mM, peptide 0-20 uM; three parallel experiments
[8] = biological target: recombinant human P2X7R (47-334, complete extracellular domain) (human) (UniProt Q99572)
[9] = biological target: recombinant human P2X7R (47-334, complete extracellular domain) (human) (UniProt Q99572); remark: listed apart in the source

Chain of Kunitz-type peptide HCIQ1c9 (A0A6B7FEJ3 15-72 limits assumed): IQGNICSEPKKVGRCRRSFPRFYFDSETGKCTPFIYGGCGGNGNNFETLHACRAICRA

With “IQGNICSEPKKVGRCRGSFPRFYFDSETGKCTPFIYGGCGGNGNNFETLRRCRAICRA (disulfide 6-56, 15-39, 31-52) [HMIQ3c1]” the Kd (Recombinant human P2X7R) was 43.3 µM and the “thermostability: retains conformation and biological activity until” value [1] was 90–100 °C.

In the case of `Nc1ncnc2c1ncn2[C@@H]1O[C@H](COP(=O)(O)OP(=O)(O)OP(=O)(O)O)[C@@H](O)[C@H]1O` [ATP, adenosine-5’-triphosphate], the “total dead cells after ATP” value (Neuro-2a cells; ATP 4 mM, 48 h, compared with control cells) is reported as “up to 30.15 ± 0.68%”, the “effect on [Ca2+]i” value (P2X7R [2]; ATP 1 mM) is reported as “large sustained increase in [Ca^2+]i” and the “increase in YO-PRO-1 dye penetration” value (P2X7R [3]; ATP 4 mM) is reported as 49.4 ± 5.9%.

In the case of “HCRG1: Kunitz-type peptide from H. crispa, C0HJU6 (RGICSEPKVVGPCKAGLRRFYYDSETGECKPFIYGGCKGNKNNFETLHACRGICRA; UniProt C0HJU6 1-56, looked up)”, the “activity on Kv channels” value (Kv channels) is given as “blockers of Kv channels” and the “effect on ROS production in 6-OHDA-treated cells” value (6-OHDA-treated cells) is given as “maintained ROS production in 6-OHDA-treated cells at the reference level”.

With “IQGNICSEPKKVGRCRESFPRFYFDSETGKCTPFIYGGCGGNGNNFETLHACRAICRA (disulfide 6-56, 15-39, 31-52) [HCIQ4c7]” the Kd (Recombinant human P2X7R) was 45.5 µM, the “thermostability: retains conformation and biological activity until” value [1] was 90–100 °C and the “decrease in trypsin-inhibitory activity after heating” value (trypsin [4]) was 7%.

With `Oc1cc2c(cc1O)CN(C(=S)NCCc1ccc(Cl)cc1)CCC2` [capsazepine] the “effect on TRPV1 channels” value (TRPV1 channels; capsazepine 10 µM (antagonist control)) was “blocking of the channels”.

In the case of “SHPI-1: Kunitz-type peptide from Stichodactyla helianthus, UniProtKB P31713 (SICSEPKKVGRCKGYFPRFYFDSETGKCTPFIYGGCGGNGNNFETLHQCRAICRA; UniProt P31713 1-55, looked up)”, the “Unordered Structure” value [5] is given as 40.0, the β-Turn [5] is given as 18.2 and the “α-Helix III” value ([5]; summary value) is given as 20.0. For the same compound, the “β-Structure III” value ([5]; summary value) was 21.8.

Compound Kunitz-type peptide HCIQ1c9 has a decrease of trypsin-inhibitory activity (BAPNA hydrolysis) of 7 uM peptide after preincubation at 60 to 100 °C (trypsin [6]) of 30 to 70 % decrease and a Ki (trypsin [7]) of 0.63 µM.

For `COc1cc(CNC(=O)CCCC/C=C/C(C)C)ccc1O` [capsaicin], the “effect on TRPV1 channels” value (TRPV1 channels; capsaicin 2 µM (agonist control)) was “activation of the TRPV1 channels”.

For Kunitz-type peptide HMIQ3c1, the decrease of the stable Ca2+ response (Fluo-8) to 1 mM ATP in mouse Neuro-2a cells pre-incubated with the peptide at 0.1, 1.0 and 10.0 uM; value at 10 uM [8] was 40.6% and the reduction of ATP (4 mM)-induced YO-PRO-1 dye uptake into mouse Neuro-2a cells; peptide at 0.01, 0.1 and 1.0 uM; value at 0.1 uM [9] was 28.1%.

Work on Kunitz-type peptide HCIQ4c7 yielded a decrease of trypsin-inhibitory activity (BAPNA hydrolysis) of 7 uM peptide after preincubation at 25 to 100 °C; value after 100 °C (trypsin [6]) of 7 % decrease, a decrease of the stable Ca2+ response (Fluo-8) to 1 mM ATP in mouse Neuro-2a cells pre-incubated with the peptide at 0.1, 1.0 and 10.0 uM; value at 10 uM [8] of 59.1% and a reduction of ATP (4 mM)-induced YO-PRO-1 dye uptake into mouse Neuro-2a cells; peptide at 0.01, 0.1 and 1.0 uM; value at 1 uM [9] of 28.5%.

For “HCRG2: Kunitz-type peptide from H. crispa, C0HJU7 (RGICLEPKVVGPCKARIRRFYYDSETGKCTPFIYGGCGGNGNNFETLHACRGICRA; UniProt C0HJU7 1-56, looked up)”, the “activity on Kv channels” value (Kv channels) is given as “blockers of Kv channels” and the “effect on ROS production in 6-OHDA-treated cells” value (6-OHDA-treated cells) is given as “maintained ROS production in 6-OHDA-treated cells at the reference level”.

In the case of `Clc1cccc(-c2nnnn2Cc2cccnc2)c1Cl` [A438079], the “increase in viability of ATP-treated cells” value (Neuro-2a cells; 10 μM, pre-incubation, 4 mM ATP 48 h, vs ATP alone) is reported as 21.3 ± 0.5%, the “decrease in ATP-induced stable calcium response” value (P2X7R [2]; 10 μM, 1 mM ATP, Fluo-8, relative to control, means ± SE) is reported as 47.7 ± 4.4% and the “reduction of ATP-induced YO-PRO-1 uptake” value (P2X7R [3]; 10 μM (standard inhibitor), 4 mM ATP, means ± SE) is reported as 18.5 ± 3.2%.
